# According to US9732065B2, “Cyclic aminomethyl pyrimidine derivative” (Sumitomo Dainippon Pharma Co., Ltd., priority 2013, dated 2017):
# Legend:
# [1] = molecular target: T1, Human dopamine D2 receptor (Homo sapiens, UniProt P14416); test: Agonistic/antagonistic activity in G protein dependent pathway (aequorin intracellular calcium luminescence), D2; assay type: cell-based; conditions: for Maximal activity on each receptor (%): D2: 10 μM dopamine = 100%; for inhibition at 0.1 µM / inhibition at 1 µM: against 10 μM endogenous ligand, read-out: Inhibitory activity on each receptor (%): D2
# T1 construct: expressed in transfected cells; host or cells: CHO-K1 or HEK293 cells
# T1 sequence (P14416 whole entry): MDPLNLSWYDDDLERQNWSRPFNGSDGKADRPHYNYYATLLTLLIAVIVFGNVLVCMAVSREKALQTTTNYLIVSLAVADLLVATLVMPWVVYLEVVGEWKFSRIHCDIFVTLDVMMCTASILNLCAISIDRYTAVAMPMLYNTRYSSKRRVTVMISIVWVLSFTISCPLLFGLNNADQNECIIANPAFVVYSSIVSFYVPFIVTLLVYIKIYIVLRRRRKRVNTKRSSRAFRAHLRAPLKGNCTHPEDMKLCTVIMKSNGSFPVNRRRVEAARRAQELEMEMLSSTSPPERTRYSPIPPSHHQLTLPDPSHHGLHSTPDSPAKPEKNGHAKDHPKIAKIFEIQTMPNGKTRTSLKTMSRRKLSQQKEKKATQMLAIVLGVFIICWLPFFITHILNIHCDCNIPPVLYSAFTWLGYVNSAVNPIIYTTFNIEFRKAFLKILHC
# Procedure: (§1) Plasmids encoding each receptor, aequorin and Gα16 were prepared, and the plasmids were transfected into CHO cells (Chinese Hamster Ovary cells) or HEK293 cells (Human Embryonic Kidney 293 cells) to prepare expressing cell lines.
# (§2) The agonistic or antagonistic activity of the present compound in the G protein dependent pathway was evaluated on the basis of intracellular calcium levels as follows. CHO-K1 or HEK293 cell lines transfected with D2, D4, α1A, or α2A receptor genes were seeded in a 384-well plate, and incubated in a CO2 incubator at 37° C. for 24 hours, and then a solution of the present compound in DMSO was added into cells preloaded with coelenterazine to measure the change in luminescent signals with a FDSS (Hamamatsu Photonics K.K.). […] The agonistic activity of the present compound was calculated according to the measured luminescent signals, as the maximal activity (Emax) of the present compound. On the other hand, the antagonistic activity of the present compound was calculated according to the luminescent signals in wells with 10 μM of an endogenous ligand alone defined as 100%, as the inhibitory activity of the present compound to an endogenous ligand. EC50 value was calculated as the concentration of the present compound required to achieve a 50% response, and IC50 was calculated as the concentration of the present compound required to achieve a 50% inhibition of the Emax of an endogenous ligand.
# [2] = Brain penetration study in rat; assay type: in vivo; conditions: brain and plasma, unbound brain-to-plasma drug concentration ratio
# Procedure: In this study, the brain penetration of the present compound can be evaluated. Specifically, a 7-week-old SD-type or WKY-type rat received the subcutaneous administration of a solution of the present compound in saline or the oral administration of a suspension of the present compound in methylcellulose. Plasma and brain were collected from the treated rat 0.5 hour, 1 hour or 2 hours after the administration, and then the levels of the present compound in the plasma and the brain were measured by a LC-MS method.
# The protein binding ratios of the present compound to the plasma and the brain were measured by an equilibrium dialysis method.
# The levels of the present compound in the plasma and the brain as well as the plasma and brain protein binding ratios are applied to the following formula, and thus Kp,uu,brain (Unbound brain-to-plasma drug concentration ratio) can be calculated. Kp,uu,brain=(level of the present compound in the brain×(100−brain protein binding ratio (%))/100)/(level of the present compound in the plasma×(100−plasma protein binding ratio (%))/100)
# [3] = test system: SHR rat; test: Inattention in SHR rat, Y-shaped maze test; assay type: in vivo; conditions: oral, 1 mg/kg
# Procedure: It is known that a SHR rat has a lower spontaneous alternation behavior ratio than a WKY rat which is a background animal through the Y-shaped maze test. Thus, the SHR rat was pretreated with the present compound to evaluate the pharmacological effect of the present compound on attention function. Specifically, a 4-week-old SHR rat received the oral administration of the present compound, and a spontaneous alternation behavior ratio in the rat was measured for 8 minutes from 30 minutes after the administration. The improved spontaneous alternation behavior ratio (%) was calculated as a numerical value on the basis of the spontaneous alternation behavior ratio in the vehicle administration group. In this study, a Y-shaped maze device (black acrylic: 450 mm×100 mm×350 mm, Horikawa Manufacturing Co., Ltd.) was used.
# [4] = test system: rat after prenatal exposure to valproic acid; test: Social impairments in rat after prenatal exposure to valproic acid, three-chamber test; assay type: in vivo; conditions: oral, 1 mg/kg
# Excerpt: A rat exposed to valproic acid on the 12.5 days of fetal life has been widely used as an autistic rat model with high validity. It is known that the rat has a social cognitive disorder through the three-chamber test which is a test for evaluating sociability. Thus, the rat was pretreated with the present compound to evaluate the improved effect of the present compound on social cognition. In this study, a sociability cage (600 mm×400 mm×220 mm, Muromachi Kikai Co., Ltd.) was used. Specifically, a 3-week-old rat after prenatal exposure to valproic acid received the oral administration of the present compound, and the time that the rat stayed in close to another rat side or a novel object was measured for 10 minutes from 30 minutes after the administration. The ratio of the time for another rat side to the time for a novel object that is defined as 100% was calculated to evaluate the improvement ratio (%) of the present compound on the basis of the result of the vehicle-treated group. The improvement ratio after the oral administration of the compound of Example 5 (1 mg/kg) was 27.6%.
# [5] = molecular target: T2, Human dopamine D4 receptor (Homo sapiens, UniProt P21917); test: Agonistic/antagonistic activity in G protein dependent pathway (aequorin intracellular calcium luminescence), D4; assay type: cell-based; design: expressed in transfected cells; host or cells: CHO-K1 or HEK293 cells; conditions: for inhibition at 0.1 µM / inhibition at 1 µM: against 10 μM endogenous ligand, read-out: Inhibitory activity on each receptor (%): D4; for Emax at 0.1 µM / Emax at 1 µM: read-out: Maximal activity on each receptor (%): D4
# T2 sequence (P21917 1-419): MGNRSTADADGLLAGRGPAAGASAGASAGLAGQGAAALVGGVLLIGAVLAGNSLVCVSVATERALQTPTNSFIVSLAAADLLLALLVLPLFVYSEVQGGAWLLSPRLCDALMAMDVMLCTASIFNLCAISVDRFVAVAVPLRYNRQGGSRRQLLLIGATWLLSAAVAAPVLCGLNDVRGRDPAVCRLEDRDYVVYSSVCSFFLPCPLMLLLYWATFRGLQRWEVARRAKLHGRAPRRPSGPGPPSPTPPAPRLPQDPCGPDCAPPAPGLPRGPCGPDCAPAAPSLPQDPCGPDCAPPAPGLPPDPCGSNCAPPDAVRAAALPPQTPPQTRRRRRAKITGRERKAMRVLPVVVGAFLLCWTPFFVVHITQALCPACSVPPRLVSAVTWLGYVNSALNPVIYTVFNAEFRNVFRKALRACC
# Procedure: as §1, §2
Maximal activity on each receptor (%): D2 ([1]; 0.1 μM) [%],inhibition at 0.1 µM ([1]; 0.1 μM) [%],Maximal activity on each receptor (%): D2 ([1]; 1 μM) [%],inhibition at 1 µM ([1]; 1 μM) [%],Kp uu [2],inhibition at 0.1 µM [5] [%],inhibition at 1 µM [5] [%],Emax at 0.1 µM [5] [%],Emax at 1 µM [5] [%],SMILES,spontaneous alternation behavior ratio [3],time that the rat stayed in close to another rat side [4],"improvement ratio (%) ([4]; time for another rat side vs novel object, relative to vehicle)"
0.19,-1.7,1.1,9.9,1.97,78,90,59,74,"Cc1ncc(CN2CCC(c3ccccn3)CC2)c(N)n1 [Example 5, 2-Methyl-5-[4-(pyridin-2-yl)piperidin-1-ylmethyl]pyrimidin-4-amine]",significantly improved,significantly increased,27.6
0.29,-5.3,1.7,1.2,0.44,76,98,28,51,"Cc1ncc(CN2CCC(c3cncc(F)c3)CC2)cn1 [Example 33, 5-[4-(5-Fluoropyridin-3-yl)piperidin-1-ylmethyl]-2-methylpyrimidine]",,,
5.4,14,18,47,5.51,64,77,18,40,Nc1ncc(CN2CCC(c3cccnc3)CC2)cn1 [Example 37],,,
